# In paper PMC8350397, “GSK137, a potent small-molecule BCL6 inhibitor with in vivo activity, suppresses antibody responses in mice” (The Journal of Biological Chemistry, 2021):
# Key:
# [1] = biological target: T1, human BCL6 BTB-POZ domain (BCL6 co-repressor peptide) (Homo sapiens, UniProt P41182, C67R/C84N/C8Q); test: BCL6 TR-FRET assay, BCOR peptide displacement; type: binding; conditions: read-out: pIC50 Human TR-FRET BCL6 co-repressor (converted)
# T1 construct: BCL6-Flag-6H-Avi (5-129) C8Q, C67R, C84N proteins; Flag (C); 6H (His6) (C); made in house; host or cells: E. coli
# Procedure: Human, mouse and rat BCL6-Flag-6H-Avi (5-129) C8Q, C67R, C84N proteins were expressed in E. coli according to standard procedures and purified on Ni-NTA, followed by ion exchange on a Source 30Q column and size exclusion on an Superdex 200 column in a buffer of 20 mM Tris, 250 mM NaCl, 5 mM DTT, 5% glycerol, pH 8.5. All protein purities were estimated to be >90% by SDS-PAGE and the expected masses were confirmed by MS analysis. For TR-FRET assay protein was enzymatically biotinylated by treatment of protein at 100 µM with a 2 fold molar excess of biotin in the presence of 2 mM ATP and 1 µM BirA enzyme in a buffer of 50 mM bicine pH 8.3, 10 mM MgCl2 at 30 °C for 1 hour, followed by extensivedialysis against 50 mM Tris-Cl pH 8.0, 100 mM NaCl, 1 mM DTT using a 3.5 kDa cut-off membrane. Biotinylation was confirmed by MS analysis and concentration was determined by Bradford assay, after which protein was stored in aliquots at -80 °C.
# Acceptor-labelled SMRT peptide H2N-[…](D2)-OH was dissolved in water by mass to give a 500 µM stock solution which was stored at -20 °C. Acceptor-labelled NCOR peptide H2N-[…](Alexa Fluor 647)-OH and acceptor-labelled BCOR peptide H2N-[…](Alexa Fluor 647)-OH were dissolved to a nominal concentration of 1 mM in DMSO, and stock solution concentration was determined by absorbance at 650 nm using an extinction coefficient of 270,000 M-1cm^-1. […]
# splenic germinal centers = test: Spleen immunohistochemistry of germinal centers; type: in vivo, mouse
# Procedure: Immunohistochemistry of GCs in spleens was obtained from a pilot experiment to test immunization conditions carried out at the University of Leicester using groups of C57BL/6J mice. One group of mice was immunized with TNP-KLH (100 μg) followed by treatment with GSK137 15 mg/kg by oral gavage three times per day from day -1 to day +12 (n = 3), whereas the other was treated with vehicle by oral gavage three times per day from day -1 to day +12 following immunization (n = 6). Formalin-fixed paraffin-embedded sections of mouse spleen were stained with antimouse B220/CD45R (BD Biosciences; catalog no. 550286), […] (Abcam; ab32064), and anti-Ki67 (Abcam; ab15580) antibodies using Opal Multiplex IHC detection kit (NEL810001KT; Akoya Biosciences). The sections were counterstained with 4',6-diamidino-2-phenylindole for 5 min and mounted with ProLong Diamond Antifade mountant (Invitrogen; P36970). Images were obtained using Vectra Polaris multicolor fluorescence scanner (Akoya Biosciences). Quantification was carried out by inForm image analysis software (Akoya Biosciences). Normality tests were carried out for the B220^+Ki67^+ and […]^+ data. Both datasets were normally distributed, and accordingly, statistical significance was determined by unpaired t test.
smiles,measurement,setting,value
"Cc1ncccc1[C@H]1C[C@@H](c2cccc3nc(N)ccc23)Nc2c(F)cnn21 [GSK137, 5-((5S,7R)-3-Fluoro-7-(2-methylpyridin-3-yl)-4,5,6,7-tetrahydropyrazolo[1,5-a]pyrimidin-5-yl)quinolin-2-amine]",IC50,[1],25.1 nM
same,fraction of B220+ cells expressing clPARP within splenic B-cell follicles vs control,splenic germinal centers; 15 mg/kg,no significant difference
same,number of GCs per follicle (mean ± SD),"splenic germinal centers; 15 mg/kg orally TID, C57BL/6J mice, vehicle 0.5 ± 0.11, p = 0.04",0.27 ± 0.06
same,numbers of B220+Ki-67+ cells within each GC vs vehicle,"splenic germinal centers; 15 mg/kg, unpaired t test, p = 0.01",significant reductions
